Measured values published in patent US11479805B2, “Combinatorial single molecule analysis of chromatin” (The General Hospital Corporation, priority 2015, dated 2022).

Tests used:
[1] = tested on: H3K9ac, H3K27ac, H3K4me3 and H3K27me3 on nucleosomes from ESCs; assay: Single-molecule decoding of nucleosomes from ESCs treated with HDAC inhibitor or p300 inhibitor; type: cell-based, Mouse; details: for change in H3K4me3 or H3K27me3 on nucleosomes: over the course of treatment (sodium butyrate 6 hours, C646 24 hours); for change in acetylation marks (H3K9ac, H3K27ac) on nucleosomes: sodium butyrate 1 mM 6 hours, C646 35 μM 24 hours, vs DMSO; for change in acetylation marks (H3K9ac, H3K27ac) on nucleosomes / preference of acetylation change for H3K4me3-marked nucleosomes (combination H3K27ac and H3K4me3): FIG. 3D; for preference of acetylation change for H3K4me3-marked nucleosomes (combination H3K27ac and H3K4me3): sodium butyrate 6 hours, C646 24 hours
Experimental: Applicants treated ESCs with a pan-HDAC inhibitor (sodium butyrate; 6 hours) or with a p300 HAT inhibitor (C646; 24 hours) and probed extracted nucleosomes for H3K9ac, H3K27ac, H3K4me3 and H3K27me3.
(§1) For HDAC inhibition, 6 million ES cells were plated on a 150 cm plate. 0.5M stock solution of Sodium butyrate (Sigma, 303410) was prepared fresh for each experiment, and diluted in cell media to a final concentration of 1 mM. Following 6 hours of treatment (unless otherwise noted in text), cells were collected and washed with PBS. For p300 inhibition, 4 million ES cells were plated on a 150 cm plate. 25 mM stock solution of C646 (Sigma, SML0002) was prepared and diluted in cell media to a final concentration of 35 μM. Cells were treated for 24 hours, then collected and washed with PBS. For EZH2 inhibition, 2.5 million Karpas422 B-cell non-Hodgkin's lymphoma cells were suspended in 10 ml media. A 10 mM stock solution of the EZH2 inhibitor GSK126 (32) was prepared and diluted 1:1000 in cell media. Cells were harvested 3 days following treatment.
10 million cells were collected and washed twice with PBS, then resuspended in 500 μl of Lysis buffer (50 mM Tris-HCl pH 7.5, 150 mM NaCl, 1% Triton® X-100, 0.1% sodium deoxycholate, 5 mM CaCl2), supplemented with protease inhibitors (ThermoFisher Scientific, 78425), phosphatase inhibitors (ThermoFisher Scientific, 78420) and HDAC inhibitors (Sodium butyrate, Sigma 303410). Micrococcal Nuclease (ThermoFisher Scientific, 88216) was added to lysis buffer at a concentration of 1 unit per milliliter. The suspension is incubated at 4° C. for 1 hour to lyse the cells, after which MNase is activated by incubating at 37° C. for 20 min and inactivated by addition of EGTA at a final concentration of 20 mM. Next, Applicants centrifuged the lysate for 10 min at max speed and supernatant was transferred to a new tube. 10% of the lysate was used to extract DNA (QIAGEN PCR purification kit, 28104) and run on 2% agarose gel to verify MNase digestion. 100 μl of the lysate were used for ligation of fluorescent, biotinylated adaptors: sample was diluted 1:1 in ligation reaction mixture containing End-It™ DNA End-Repair Kit (Epicentre, ER0720) and Fast-Link™ DNA Ligation Kit (Epicentre, LK0750H). Ligation buffer (100 μl) contained 20 μl ligase buffer, 5 μl of 10 mM dNTPs, 16 μl of 10 Mm ATP, 8 μl End-It, 8 μl fast-link ligase, 1 μl protease inhibitors, 1 μl phosphatase inhibitors, 2 μl of 50 mM sodium butyrate solution, 8 μl annealed adaptors (see sequences below) and H2O. Following at least two hours of ligation at room temperature, 1.5 ml of PBS (supplemented with inhibitors) was added to the sample. Next, the sample was concentrated on an Amicon ultra-4 centrifugal filter unit with ultracel-100 membrane (Millipore, UFC810024) for 15 minutes, and the Pac1 enzymatic reaction (NEB, R0547S) was performed in order to digest adaptor concatemers (adaptors were designed to form Pac1 restriction site in cases of self-ligation). Following Pac1 digestion, nucleosomes were separated on 10-30% glycerol gradients for 18 hours at 35,000 rpm. Fractions were collected and analyzed on 6% DNA retardation gels (ThermoFisher Scientific, EC6365BOX). Gels were imaged with Typhoon trio+imager (Amersham Biosciences), and fractions containing mono-nucleosomes were combined and concentrated on an Amicon Ultra-0.5 Centrifugal Filter Unit with Ultracel-100 membrane (Millipore, UFC510096). For preparation of biotinylated histones (FIG. 2E), histones were purified from ESCs using acid extraction and TCA precipitation as described previously (89). Histones biotinylation was carried out with EZ-Link Sulfo-NHS-Biotinylation Kit (Thermo Scientific, 21425) according to manufacturer's protocol.

[2] = tested on: acetylation marks in ESCs; assay: Western blot of acetylation marks in ESCs after HDAC or p300 inhibition; type: cell-based, Mouse; details: FIG. 12B, corresponds to FIG. 3D
Experimental: FIG. 12A-12B. […] (A) Scatter plot of the observed overlap of the indicated modification pair versus the overlap expected by chance. Corresponds to the data in FIG. 3A, 3B. […] Corresponds to the data in FIG. 3D.
as §1

[3] = tested on: H3K27me3 on bivalent nucleosomes of Karpas422 lymphoma cells; assay: Single-molecule decoding of H3K27me3 and H3K4me3 on nucleosomes from EZH2 gain-of-function lymphoma cells treated with EZH2 inhibitor; type: cell-based, human; details: treatment for 3 days, FIG. 2G
Description: Genomic loci marked by bivalent chromatin in ESCs are frequently deregulated in cancer cells (26). Moreover, the Polycomb and trithorax complexes that catalyze H3K27me3 and H3K4me3 are often mutated in cancer (27, 28). Applicants therefore leveraged the single-molecule platform to investigate these modifications in cancer cells (FIG. 2B, 2C, 10B). First, Applicants examined three cell lines that lack known Polycomb or trithorax mutations: T-cell acute leukemia (DND-41), embryonic kidney (HEK293), and glioblastoma (GSC8). […] Applicants next examined a leukemia line (SKM-1) with a loss-of-function (LOF) mutation of the PRC2 subunit EZH2 (29, 30) (FIG. 2C). Applicants observed a drastic reduction of H3K27me3-marked nucleosomes, consistent with inactivation of this H3K27 methyltransferase. Applicants also examined a lymphoma cell line (Karpas422) with a gain-of-function (GOF) EZH2 mutation that increases its catalytic activity (30). Here Applicants detected H3K27me3 on a very high proportion of nucleosomes (15%). […] Even when controlling for the large fraction of H3K27me3-marked nucleosomes in these cells, the proportion of bivalent nucleosomes is ˜4-fold greater than expected from random overlap. […] This may reflect increased nucleosome turnover and/or preferential demethylation in such regions. […]

| SMILES | change in H3K4me3 or H3K27me3 on nucleosomes [1] | change in acetylation marks (H3K9ac, H3K27ac) on nucleosomes [1] | preference of acetylation change for H3K4me3-marked nucleosomes (combination H3K27ac and H3K4me3) [1] | acetylation marks by Western blot [2] | loss of H3K27me3 from bivalent nucleosomes [3] |
| --- | --- | --- | --- | --- | --- |
| CC1=NN(c2ccc(C(=O)O)cc2)C(=O)/C1=C\c1ccc(-c2cc(C)c(C)cc2[N+](=O)[O-])o1 [C646] | Neither drug altered | opposite affect | H3K4me3-marked nucleosomes were more likely to retain their initial state | decrease in acetylation | – |
| CCCC(=O)[O-].[Na+] [sodium butyrate, Sodium butyrate] | Neither drug altered | significantly increased | increased acetylation preferentially affected H3K4me3-marked nucleosomes | increase in acetylation marks | – |
| CC[C@H](C)n1cc(C)c2c(C(=O)NCc3c(C)cc(C)[nH]c3=O)cc(-c3ccc(N4CCNCC4)nc3)cc21 [GSK126] | – | – | – | – | preferential loss of H3K27me3 from bivalent nucleosomes |
